Data on 22 compounds can be found in patent US9133148B2, “Carbamate compounds and of making and using same” (Abide Therapeutics, Inc., priority 2012, dated 2015).

One may read the IC50 as the point on the concentration scale where inhibition reaches its midpoint. As usually defined, the inhibition is the relative decrease from the control value, in per cent. Low readings indicate a weak effect, high ones a strong effect.

What all share (assay type): biochemical
For one experiment, the target named is Human MAGL (Homo sapiens (Human), UniProt Q99685). Description: Competitive ABPP with recombinant human MAGL expressed in HEK293T cells. As to conditions: hMAGL in HEK293T cell lysates. As for the experimental part: (§1) Proteomes (mouse brain membrane fraction or cell lysates) ([…], 1.0 mg/mL total protein concentration) were preincubated with varying concentrations of inhibitors at 37° C. After 30 min, FP-Rh (1.0 μL, 50 μM in DMSO) was added and the mixture was incubated for another 30 min at 37° C. Reactions were quenched with SDS loading buffer (50 μL—4×) and run on SDS-PAGE.
Sequence of Human MAGL (Q99685 whole entry): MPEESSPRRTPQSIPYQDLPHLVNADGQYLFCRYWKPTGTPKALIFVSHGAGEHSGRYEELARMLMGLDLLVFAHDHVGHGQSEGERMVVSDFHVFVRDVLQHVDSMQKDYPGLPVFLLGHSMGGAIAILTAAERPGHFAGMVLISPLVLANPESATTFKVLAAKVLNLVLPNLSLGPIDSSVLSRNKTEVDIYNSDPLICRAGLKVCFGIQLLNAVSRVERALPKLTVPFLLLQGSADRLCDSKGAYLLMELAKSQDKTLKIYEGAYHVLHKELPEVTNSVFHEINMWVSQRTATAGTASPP
Recombinant Expression of Human MAGL in HEK293T Cells.
Cell lysates were diluted with mock proteomes for use in competitive ABPP experiments.

Experiment [1] addresses T1, MAGL (Mus musculus (Mouse), UniProt O35678). Description: In vitro competitive activity-based protein profiling (FP-Rh), mouse MAGL. To be noted: mouse brain membrane proteome, competitive ABPP. As to the method:
(§2) In Vitro Competitive Activity-Based Protein Profiling.
as §1

The target in experiment [2] is T2, FAAH (Mus musculus (Mouse), UniProt O08914). Description: In vitro competitive activity-based protein profiling (FP-Rh), mouse FAAH. To be noted: mouse brain membrane proteome, competitive ABPP. As for the experimental part:
as §2, §1

Experiment [3] concerns the target T3, ABHD6 (Mus musculus (Mouse), UniProt Q8R2Y0). The experiment in a line: In vitro competitive activity-based protein profiling (FP-Rh), mouse ABHD6. To be noted: mouse brain membrane proteome, competitive ABPP. As for the experimental part:
as §2, §1

Experiment [4] concerns the target T2, FAAH. Description: Competitive ABPP, % inhibition at 1 uM, FAAH. As for the experimental part:
as §2
Proteomes (mouse brain membrane fraction or cell lysates) ([…], 1.0 mg/mL total protein concentration) were preincubated with varying concentrations of inhibitors at 37° C. After 30 min, FP-Rh (1.0 μL, 50 μM in DMSO) was added and the mixture was incubated for another 30 min at 37° C. Reactions were quenched with SDS loading buffer (50 μL—4×) and run on SDS-PAGE. Following gel imaging, serine hydrolase activity was determined by measuring fluorescent intensity of gel bands corresponding to MAGL, ABHD6 and FAAH using ImageJ 1.43u software.

Experiment [5] has as its target T1, MAGL. Description: Competitive ABPP, % inhibition at 1 uM, MAGL. As for the experimental part:
as §2, §1

The target of experiment [6] is T3, ABHD6. Description: Competitive ABPP, % inhibition at 1 uM, ABHD6. As to the method: as §2, §1

T2 sequence (O08914 whole entry): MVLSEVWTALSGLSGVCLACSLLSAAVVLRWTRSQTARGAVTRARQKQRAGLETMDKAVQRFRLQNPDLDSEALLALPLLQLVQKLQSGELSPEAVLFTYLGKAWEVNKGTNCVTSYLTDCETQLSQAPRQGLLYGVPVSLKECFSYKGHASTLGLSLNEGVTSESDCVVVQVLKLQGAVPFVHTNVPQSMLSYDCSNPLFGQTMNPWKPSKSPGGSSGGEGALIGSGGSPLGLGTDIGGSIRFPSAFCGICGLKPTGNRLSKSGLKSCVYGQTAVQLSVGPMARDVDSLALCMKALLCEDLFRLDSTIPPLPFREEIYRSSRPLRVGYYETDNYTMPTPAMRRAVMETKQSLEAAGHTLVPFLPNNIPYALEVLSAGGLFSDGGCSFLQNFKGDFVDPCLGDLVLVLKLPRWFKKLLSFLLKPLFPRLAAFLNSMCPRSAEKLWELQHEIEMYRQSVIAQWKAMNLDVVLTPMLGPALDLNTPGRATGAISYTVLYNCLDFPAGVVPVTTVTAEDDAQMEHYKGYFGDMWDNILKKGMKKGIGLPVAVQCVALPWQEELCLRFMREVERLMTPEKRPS
T3 sequence (Q8R2Y0 whole entry): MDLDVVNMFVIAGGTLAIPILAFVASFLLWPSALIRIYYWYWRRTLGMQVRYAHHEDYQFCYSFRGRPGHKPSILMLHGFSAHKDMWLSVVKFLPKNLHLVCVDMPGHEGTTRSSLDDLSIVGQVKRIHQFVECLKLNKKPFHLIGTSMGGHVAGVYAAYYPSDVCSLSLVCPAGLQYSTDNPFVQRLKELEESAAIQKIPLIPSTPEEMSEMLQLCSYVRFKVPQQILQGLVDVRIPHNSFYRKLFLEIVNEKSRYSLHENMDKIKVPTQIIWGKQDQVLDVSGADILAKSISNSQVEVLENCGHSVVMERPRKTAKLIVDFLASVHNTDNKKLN
T1 sequence (O35678 whole entry): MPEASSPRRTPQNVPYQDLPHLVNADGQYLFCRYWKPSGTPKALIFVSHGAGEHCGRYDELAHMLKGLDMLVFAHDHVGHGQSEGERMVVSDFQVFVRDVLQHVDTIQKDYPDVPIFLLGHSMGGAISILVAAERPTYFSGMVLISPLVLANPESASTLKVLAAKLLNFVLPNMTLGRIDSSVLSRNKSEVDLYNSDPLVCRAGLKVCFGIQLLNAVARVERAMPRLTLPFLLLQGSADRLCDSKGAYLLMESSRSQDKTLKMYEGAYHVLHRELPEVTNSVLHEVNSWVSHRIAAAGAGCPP

Turning to `O=C(OC(C(F)(F)F)C(F)(F)F)N1CCN(S(=O)(=O)c2cccc(C(F)(F)F)c2)CC1` [Example 4i, 1,1,1,3,3,3-hexafluoropropan-2-yl 4-((3-(trifluoromethyl)phenyl)-sulfonyl)piperazine-1-carboxylate], the half-maximal inhibitory concentration (IC50) on Human MAGL is 0.1 to 1 µM; at MAGL [1], 100 to 1000 nM; on FAAH [2], above 10000 nM; at ABHD6 [3], above 1000 nM.

For the compound `O=C(OC(C(F)(F)F)C(F)(F)F)N1CCC(=C(c2ccc3c(c2)OCO3)c2ccc3c(c2)OCO3)CC1` [Example 1d, 1,1,1,3,3,3-hexafluoropropan-2-yl 4-(bis(benzo[d][1,3]dioxol-5-yl)methylene)piperidine-1-carboxylate], the IC50 on Human MAGL is below 0.1 µM; at MAGL [1] it was below 100 nM; at FAAH [2], above 10000 nM; at ABHD6 [3], 100 to 1000 nM.

Regarding `Cc1ccc(S(=O)(=O)N2CCN(C(=O)OC(C(F)(F)F)C(F)(F)F)CC2)cc1` [Example 4b, 1,1,1,3,3,3-hexafluoropropan-2-yl 4-tosylpiperazine-1-carboxylate], the IC50 on Human MAGL is below 0.1 µM; on MAGL [1], below 100 nM; at FAAH [2] it was above 10000 nM; on ABHD6 [3] it was 100 to 1000 nM.

In the case of `Cc1ccccc1S(=O)(=O)N1CCN(C(=O)OC(C(F)(F)F)C(F)(F)F)CC1` [Example 4g, 1,1,1,3,3,3-hexafluoropropan-2-yl 4-(o-tolylsulfonyl)piperazine-1-carboxylate], the IC50 on Human MAGL was 0.1 to 1 µM; at MAGL [1], 100 to 1000 nM; on FAAH [2], above 10000 nM; at ABHD6 [3], 100 to 1000 nM.

As to `N#Cc1ccc(S(=O)(=O)N2CCN(C(=O)OC(C(F)(F)F)C(F)(F)F)CC2)cc1` [Example 4d, 1,1,1,3,3,3-hexafluoropropan-2-yl 4-((4-cyanophenyl)sulfonyl)-piperazine-1-carboxylate], the IC50 is 0.1 to 1 µM on Human MAGL, 100 to 1000 nM at MAGL [1], above 10000 nM on FAAH [2] and above 1000 nM on ABHD6 [3].

For the compound `O=C(OC(C(F)(F)F)C(F)(F)F)N1CCN(S(=O)(=O)c2ccccc2)CC1` [Example 4a, 1,1,1,3,3,3-hexafluoropropan-2-yl 4-(phenylsulfonyl)piperazine-1-carboxylate], the IC50 is 0.1 to 1 µM on Human MAGL, 100 to 1000 nM at MAGL [1], above 10000 nM on FAAH [2] and 100 to 1000 nM on ABHD6 [3].

Take `CC(C)c1cc(C(C)C)c(S(=O)(=O)N2CCN(C(=O)OC(C(F)(F)F)C(F)(F)F)CC2)c(C(C)C)c1` [Example 4f, 1,1,1,3,3,3-hexafluoropropan-2-yl 4-((2,4,6-triisopropylphenyl)-sulfonyl)piperazine-1-carboxylate]: the IC50 on Human MAGL was above 1 µM; on MAGL [1], above 1000 nM; on FAAH [2], above 10000 nM; on ABHD6 [3], above 1000 nM.

For `CN(Cc1ccc2c(c1)OCO2)C(=O)OC(C(F)(F)F)C(F)(F)F` [Example 3i, 1,1,1,3,3,3-hexafluoropropan-2-yl(benzo[d][1,3]dioxol-5-ylmethyl)-(methyl)carbamate], the IC50 was 0.1 to 1 µM at Human MAGL, 100 to 1000 nM at MAGL [1], above 10000 nM on FAAH [2] and above 1000 nM at ABHD6 [3].

Regarding `Cc1nc(-c2cccc(CN(C)C(=O)OC(C(F)(F)F)C(F)(F)F)c2)no1` [Example 3j, 1,1,1,3,3,3-hexafluoropropan-2-yl methyl(3-(5-methyl-1,2,4-oxadiazol-3-yl)benzyl)carbamate], the IC50 at Human MAGL was below 0.1 µM; on MAGL [1], 100 to 1000 nM; on FAAH [2], above 10000 nM; on ABHD6 [3], 100 to 1000 nM.

Take `COc1ccc(N2CCN(C(=O)OC(C(F)(F)F)C(F)(F)F)CC2)cc1` [Example 3e, 1,1,1,3,3,3-hexafluoropropan-2-yl 4-(4-methoxyphenyl)piperazine-1-carboxylate]: the IC50 was 0.1 to 1 µM on Human MAGL, above 1000 nM at MAGL [1], above 10000 nM on FAAH [2] and 100 to 1000 nM at ABHD6 [3].

Turning to `O=C(OC(C(F)(F)F)C(F)(F)F)N1CCN(C(=O)c2ccc(-c3ccccc3)cc2)CC1` [Example 3c, 1,1,1,3,3,3-hexafluoropropan-2-yl 4-([1,1′-biphenyl]-4-carbonyl)-piperazine-1-carboxylate], the IC50 was above 1 µM at Human MAGL, above 1000 nM on MAGL [1], above 10000 nM at FAAH [2] and above 1000 nM on ABHD6 [3].

Take `Cc1cc(N2CCN(C(=O)OC(C(F)(F)F)C(F)(F)F)CC2)c2ccccc2n1` [Example 3h, 1,1,1,3,3,3-hexafluoropropan-2-yl 4-(2-methylquinolin-4-yl)piperazine-1-carboxylate]: the IC50 is below 0.1 µM on Human MAGL, above 1000 nM on MAGL [1], above 10000 nM at FAAH [2] and above 1000 nM on ABHD6 [3].

Turning to `O=C(OC(C(F)(F)F)C(F)(F)F)N1CCN(C(c2ccc3c(c2)OC(F)(F)O3)c2ccc3c(c2)OC(F)(F)O3)CC1` [Example 2f, 1,1,1,3,3,3-hexafluoropropan-2-yl 4-(bis(2,2-difluorobenzo[d][1,3]-dioxol-5-yl)methyl)piperazine-1-carboxylate], the IC50 on Human MAGL is below 0.1 µM; on MAGL [1], below 100 nM; at FAAH [2], above 10000 nM; on ABHD6 [3] it was above 1000 nM.

As for `CC(=O)Nc1ccc(S(=O)(=O)N2CCN(C(=O)OC(C(F)(F)F)C(F)(F)F)CC2)cc1` [Example 4e, 1,1,1,3,3,3-hexafluoropropan-2-yl 4-((4-acetamidophenyl)sulfonyl)-piperazine-1-carboxylate], the IC50 at Human MAGL is above 1 µM; at MAGL [1] it was above 1000 nM; at FAAH [2], above 10000 nM; on ABHD6 [3] it was above 1000 nM.

Turning to `COc1ccc(-c2cc(CN3CCN(C(=O)OC(C(F)(F)F)C(F)(F)F)CC3)no2)cc1` [Example 10a, 1,1,1,3,3,3-hexafluoropropan-2-yl 4-((5-(4-methoxyphenyl)isoxazol-3-yl)methyl)piperazine-1-carboxylate], the inhibition at 1 µM at FAAH [4] is below 25%; on MAGL [5], above 75%; at ABHD6 [6], 25 to 75%.

`CC1CN(C(=O)OC(C(F)(F)F)C(F)(F)F)CCN1Cc1ccc(-c2ccccc2)cc1` (stereo not shown) [Example 11a, 1,1,1,3,3,3-hexafluoropropan-2-yl 3-methyl-4-[(4-phenylphenyl)methyl]piperazine-1-carboxylate]: the results for the inhibition at 1 µM at FAAH [4], on MAGL [5] and on ABHD6 [6] were below 25%, 25 to 75% and 25 to 75%, respectively.

Consider `Cc1ccccc1-c1ccc(CN2CCN(C(=O)OC(C(F)(F)F)C(F)(F)F)CC2)c(C)n1` [Example 11b, 1,1,1,3,3,3-hexafluoropropan-2-yl 4-[[2-methyl-6-(2-methylphenyl)pyridin-3-yl]methyl]piperazine-1-carboxylate], for which the values for the inhibition at 1 µM at FAAH [4], at MAGL [5] and on ABHD6 [6] were below 25%, above 75% and 25 to 75%, respectively.

Regarding `Cc1nc(-c2ccccc2F)ccc1CN1CCN(C(=O)OC(C(F)(F)F)C(F)(F)F)CC1` [Example 11c, 1,1,1,3,3,3-hexafluoropropan-2-yl 4-[[6-(2-fluorophenyl)-2-methylpyridin-3-yl]methyl]piperazine-1-carboxylate], the values for the inhibition at 1 µM on FAAH [4], at MAGL [5] and on ABHD6 [6] were below 25%, 25 to 75% and 25 to 75%, respectively.

For `O=C(OC(C(F)(F)F)C(F)(F)F)N1CCN(Cc2ccc(-c3ccccc3)cc2)CC1` [Example 3b, 1,1,1,3,3,3-hexafluoropropan-2-yl 4-([1,1′-biphenyl]-4-ylmethyl)-piperazine-1-carboxylate], the IC50 at Human MAGL is below 0.1 µM; on MAGL [1], 100 to 1000 nM; at FAAH [2], above 10000 nM; at ABHD6 [3] it was above 1000 nM.

`O=C(OC(C(F)(F)F)C(F)(F)F)N1CCN(S(=O)(=O)c2ccc3ccccc3c2)CC1` [Example 4h, 1,1,1,3,3,3-hexafluoropropan-2-yl 4-(naphthalen-2-ylsulfonyl)-piperazine-1-carboxylate]: the IC50 was above 1 µM on Human MAGL, below 100 nM at MAGL [1], above 10000 nM at FAAH [2] and above 1000 nM on ABHD6 [3].

For `Cc1cc(-c2ccc(CN3CCN(C(=O)OC(C(F)(F)F)C(F)(F)F)CC3)c(C)c2)ccn1` [Example 11i, 1,1,1,3,3,3-hexafluoropropan-2-yl 4-[[2-methyl-4-(2-methylpyridin-4-yl)phenyl]methyl]piperazine-1-carboxylate], the values for the inhibition at 1 µM at FAAH [4], at MAGL [5] and at ABHD6 [6] were below 25%, 25 to 75% and 25 to 75%, respectively.

In the case of `Cc1cc(-c2ccc(CN3CCN(C(=O)OC(C(F)(F)F)C(F)(F)F)CC3)c(F)c2)cc(C)n1` [Example 11aa, 1,1,1,3,3,3-hexafluoropropan-2-yl 4-[[4-(2,6-dimethylpyridin-4-yl)-2-fluorophenyl]methyl]piperazine-1-carboxylate], the inhibition at 1 µM is below 25% at FAAH [4], above 75% on MAGL [5] and 25 to 75% on ABHD6 [6].
